Data from BindingDB's records for patent US20250042862 (Shanghai Institute of Materia Medica, 2025).

Molecular target: Lysine-specific histone demethylase 1A (Homo sapiens, UniProt O60341)
Assay: In Vitro Enzyme Inhibition Activity Assay
Method: The purpose of this experiment was to test the in vitro inhibitory activity of the compounds against LSD1. The human recombinant LSD1 protein used in the experiment was purchased from Active Motif, and the enzyme level activity testing assay of LSD1 was performed using the Lance Ultra LSD1 Histone H3 Lysine 4 Demethylase Assay Kit (PerkinElmer). Tris-buffer (50 mMTris-HCl, 50 mMNaCl, 0.01% Tween-20, 1 mM DTT, 10 μM FAD, 10% glycerol, pH 9.0) was first prepared, and after preparation, the LSD1 fractions required for test were placed in this buffer and incubated for one hour at room temperature; the fractions included 4 μL of substrate solution ([…] Bio-H3K4me2, 1-24aa), 4 μL of enzyme solution (4 nM LSD1), and 2 μL of inhibitor in a 384-well microplate. After these operations, another 5 μL of assay mixture containing Eu-labeled H3K4me0 antibody and ULight-Streptavidin anti-biotin protein was added to the system, after which the fluorescence intensity of the components to be tested was detected by using Envision (PerkinElmer) in TR-FRET mode (excitation wavelength of 320 nm, emission wavelength of 620 nm). The test was repeated a total of three times to minimize errors. The final IC50 data were calculated by the software GraphPad Prism 5, and finally the sigmoidal dose-response (variable slope) method was used to obtain the fitted curve.

IC50	Structure (SMILES)
< 30 nM	N#Cc1ccc(-c2nc(NC[C@H]3CCNC3)nc3ccc(-c4ccccc4C(F)(F)F)cc23)cc1F [US20250042862, Compound 40]
< 30 nM	N#Cc1ccc(-c2nc(NC[C@H]3CCNC3)nc3ccc(-c4ccccc4Cl)cc23)cc1F [US20250042862, Compound 42]
